Activity calls are given as the source filed them. No cut-off for these calls is given here.
Key:
Assay type in all cases: functional
Staphylococcus aureus [1] = test: Antibacterial activity against Staphylococcus aureus assessed as diameter of inhibition zone at 12.5 ug/well after 24 hrs by agar well diffusion method
Aspergillus niger [2] = test: Antifungal activity against Aspergillus niger assessed as diameter of inhibition zone at 12.5 ug/well after 48 hrs by agar well diffusion method; settings: read-out: DIZ
Pseudomonas aeruginosa [3] = test: Antibacterial activity against Pseudomonas aeruginosa assessed as diameter of inhibition zone at 12.5 ug/well after 24 hrs by agar well diffusion method; settings: read-out: DIZ
Klebsiella pneumoniae [4] = test: Antibacterial activity against Klebsiella pneumoniae assessed as diameter of inhibition zone at 25 ug/well after 24 hrs by agar well diffusion method; settings: read-out: DIZ
Penicillium chrysogenum [5] = test: Antifungal activity against Penicillium chrysogenum assessed as diameter of inhibition zone at 25 ug/well after 48 hrs by agar well diffusion method; settings: read-out: DIZ
Penicillium chrysogenum [6] = test: Antifungal activity against Penicillium chrysogenum assessed as diameter of inhibition zone at 100 ug/well after 48 hrs by agar well diffusion method; settings: read-out: DIZ
Bacillus subtilis [7] = test: Antibacterial activity against Bacillus subtilis assessed as diameter of inhibition zone at 50 ug/well after 24 hrs by agar well diffusion method; settings: for zone of inhibition at 50 µg/disc: read-out: DIZ
Pseudomonas aeruginosa [8] = test: Antibacterial activity against Pseudomonas aeruginosa assessed as diameter of inhibition zone at 50 ug/well after 24 hrs by agar well diffusion method; settings: read-out: DIZ
Pseudomonas aeruginosa [9] = test: Antibacterial activity against Pseudomonas aeruginosa assessed as diameter of inhibition zone at 25 ug/well after 24 hrs by agar well diffusion method; settings: read-out: DIZ
Klebsiella pneumoniae [10] = test: Antibacterial activity against Klebsiella pneumoniae assessed as diameter of inhibition zone at 50 ug/well after 24 hrs by agar well diffusion method; settings: read-out: DIZ
Pseudomonas aeruginosa [11] = test: Antibacterial activity against Pseudomonas aeruginosa assessed as diameter of inhibition zone at 100 ug/well after 24 hrs by agar well diffusion method; settings: read-out: DIZ
Bacillus subtilis [12] = test: Antibacterial activity against Bacillus subtilis assessed as diameter of inhibition zone at 100 ug/well after 24 hrs by agar well diffusion method; settings: read-out: DIZ
Staphylococcus aureus [13] = test: Antibacterial activity against Staphylococcus aureus assessed as diameter of inhibition zone at 25 ug/well after 24 hrs by agar well diffusion method
Staphylococcus aureus [14] = test: Antibacterial activity against Staphylococcus aureus assessed as diameter of inhibition zone at 100 ug/well after 24 hrs by agar well diffusion method
Penicillium chrysogenum [15] = test: Antifungal activity against Penicillium chrysogenum assessed as diameter of inhibition zone at 12.5 ug/well after 48 hrs by agar well diffusion method; settings: for zone of inhibition at 12.5 µg/disc: read-out: DIZ
Aspergillus niger [16] = test: Antifungal activity against Aspergillus niger assessed as diameter of inhibition zone at 50 ug/well after 48 hrs by agar well diffusion method; settings: read-out: DIZ
Bacillus subtilis [17] = test: Antibacterial activity against Bacillus subtilis assessed as diameter of inhibition zone at 12.5 ug/well after 24 hrs by agar well diffusion method
Bacillus subtilis [18] = test: Antibacterial activity against Bacillus subtilis assessed as diameter of inhibition zone at 25 ug/well after 24 hrs by agar well diffusion method
Aspergillus niger [19] = test: Antifungal activity against Aspergillus niger assessed as diameter of inhibition zone at 100 ug/well after 48 hrs by agar well diffusion method; settings: read-out: DIZ
Penicillium chrysogenum [20] = test: Antifungal activity against Penicillium chrysogenum assessed as diameter of inhibition zone at 50 ug/well after 48 hrs by agar well diffusion method; settings: read-out: DIZ
Staphylococcus aureus [21] = test: Antibacterial activity against Staphylococcus aureus assessed as diameter of inhibition zone at 50 ug/well after 24 hrs by agar well diffusion method
Klebsiella pneumoniae [22] = test: Antibacterial activity against Klebsiella pneumoniae assessed as diameter of inhibition zone at 100 ug/well after 24 hrs by agar well diffusion method; settings: read-out: DIZ
Klebsiella pneumoniae [23] = test: Antibacterial activity against Klebsiella pneumoniae assessed as diameter of inhibition zone at 12.5 ug/well after 24 hrs by agar well diffusion method; settings: read-out: DIZ
Aspergillus niger [24] = test: Antifungal activity against Aspergillus niger assessed as diameter of inhibition zone at 25 ug/well after 48 hrs by agar well diffusion method; settings: read-out: DIZ

Cc1cc(SCc2nnc(-c3ccccc3)s2)nc(SCc2nnc(-c3ccccc3)s2)n1
zone of inhibition at 12.5 µg/disc (Staphylococcus aureus [1]; read-out: DIZ): 10 mm
zone of inhibition at 12.5 µg/disc (Aspergillus niger [2]): 15 mm
zone of inhibition at 12.5 µg/disc (Pseudomonas aeruginosa [3]): 15 mm
zone of inhibition at 25 µg/disc (Klebsiella pneumoniae [4]): 21 mm
zone of inhibition at 25 µg/disc (Penicillium chrysogenum [5]): 10 mm
zone of inhibition at 100 µg/disc (Penicillium chrysogenum [6]): 14 mm
zone of inhibition at 50 µg/disc (Bacillus subtilis [7]): 15 mm
zone of inhibition at 50 µg/disc (Pseudomonas aeruginosa [8]): 20 mm
zone of inhibition at 25 µg/disc (Pseudomonas aeruginosa [9]): 19 mm
zone of inhibition at 50 µg/disc (Klebsiella pneumoniae [10]): 23 mm
zone of inhibition at 100 µg/disc (Pseudomonas aeruginosa [11]): 24 mm
zone of inhibition at 100 µg/disc (Bacillus subtilis [12]): 18 mm
zone of inhibition at 25 µg/disc (Staphylococcus aureus [13]; read-out: DIZ): 11 mm
zone of inhibition at 100 µg/disc (Staphylococcus aureus [14]; read-out: DIZ): 13 mm
zone of inhibition at 12.5 µg/disc (Penicillium chrysogenum [15]): 9 mm
zone of inhibition at 50 µg/disc (Aspergillus niger [16]): 19 mm
zone of inhibition at 12.5 µg/disc (Bacillus subtilis [17]; read-out: DIZ): 11 mm
zone of inhibition at 25 µg/disc (Bacillus subtilis [18]; read-out: DIZ): 13 mm
zone of inhibition at 100 µg/disc (Aspergillus niger [19]): 22 mm
zone of inhibition at 50 µg/disc (Penicillium chrysogenum [20]): 12 mm
zone of inhibition at 50 µg/disc (Staphylococcus aureus [21]; read-out: DIZ): 12 mm
zone of inhibition at 100 µg/disc (Klebsiella pneumoniae [22]): 26 mm
zone of inhibition at 12.5 µg/disc (Klebsiella pneumoniae [23]): 20 mm
zone of inhibition at 25 µg/disc (Aspergillus niger [24]): 17 mm

Cc1cc(SCc2nnc(-c3ccc(Br)cc3)o2)nc(SCc2nnc(-c3ccc(Br)cc3)o2)n1
diameter of the inhibition zone (DIZ) (Staphylococcus aureus [1]): inactive
zone of inhibition at 12.5 µg/disc (Aspergillus niger [2]): 13 mm
zone of inhibition at 12.5 µg/disc (Pseudomonas aeruginosa [3]): 9 mm
zone of inhibition at 25 µg/disc (Klebsiella pneumoniae [4]): 10 mm
zone of inhibition at 25 µg/disc (Penicillium chrysogenum [5]): 7 mm
zone of inhibition at 100 µg/disc (Penicillium chrysogenum [6]): 11 mm
diameter of the inhibition zone (DIZ) (Bacillus subtilis [7]): inactive
zone of inhibition at 50 µg/disc (Pseudomonas aeruginosa [8]): 13 mm
zone of inhibition at 25 µg/disc (Pseudomonas aeruginosa [9]): 11 mm
zone of inhibition at 50 µg/disc (Klebsiella pneumoniae [10]): 12 mm
zone of inhibition at 100 µg/disc (Pseudomonas aeruginosa [11]): 15 mm
zone of inhibition at 100 µg/disc (Bacillus subtilis [12]): 8 mm
diameter of the inhibition zone (DIZ) (Staphylococcus aureus [13]): inactive
diameter of the inhibition zone (DIZ) (Staphylococcus aureus [14]): inactive
diameter of the inhibition zone (DIZ) (Penicillium chrysogenum [15]): inactive
zone of inhibition at 50 µg/disc (Aspergillus niger [16]): 17 mm
diameter of the inhibition zone (DIZ) (Bacillus subtilis [17]): inactive
diameter of the inhibition zone (DIZ) (Bacillus subtilis [18]): inactive
zone of inhibition at 100 µg/disc (Aspergillus niger [19]): 19 mm
zone of inhibition at 50 µg/disc (Penicillium chrysogenum [20]): 9 mm
diameter of the inhibition zone (DIZ) (Staphylococcus aureus [21]): inactive
zone of inhibition at 100 µg/disc (Klebsiella pneumoniae [22]): 15 mm
zone of inhibition at 12.5 µg/disc (Klebsiella pneumoniae [23]): 8 mm
zone of inhibition at 25 µg/disc (Aspergillus niger [24]): 15 mm

Cc1cc(SCc2nnc(-c3ccc(Cl)cc3)o2)nc(SCc2nnc(-c3ccc(Cl)cc3)o2)n1
diameter of the inhibition zone (DIZ) (Staphylococcus aureus [1]): inactive
zone of inhibition at 12.5 µg/disc (Aspergillus niger [2]): 18 mm
zone of inhibition at 12.5 µg/disc (Pseudomonas aeruginosa [3]): 10 mm
zone of inhibition at 25 µg/disc (Klebsiella pneumoniae [4]): 11 mm
zone of inhibition at 25 µg/disc (Penicillium chrysogenum [5]): 13 mm
zone of inhibition at 100 µg/disc (Penicillium chrysogenum [6]): 17 mm
zone of inhibition at 50 µg/disc (Bacillus subtilis [7]): 7 mm
zone of inhibition at 50 µg/disc (Pseudomonas aeruginosa [8]): 14 mm
zone of inhibition at 25 µg/disc (Pseudomonas aeruginosa [9]): 12 mm
zone of inhibition at 50 µg/disc (Klebsiella pneumoniae [10]): 13 mm
zone of inhibition at 100 µg/disc (Pseudomonas aeruginosa [11]): 17 mm
zone of inhibition at 100 µg/disc (Bacillus subtilis [12]): 9 mm
diameter of the inhibition zone (DIZ) (Staphylococcus aureus [13]): inactive
diameter of the inhibition zone (DIZ) (Staphylococcus aureus [14]): inactive
zone of inhibition at 12.5 µg/disc (Penicillium chrysogenum [15]): 11 mm
zone of inhibition at 50 µg/disc (Aspergillus niger [16]): 22 mm
diameter of the inhibition zone (DIZ) (Bacillus subtilis [17]): inactive
diameter of the inhibition zone (DIZ) (Bacillus subtilis [18]): inactive
zone of inhibition at 100 µg/disc (Aspergillus niger [19]): 25 mm
zone of inhibition at 50 µg/disc (Penicillium chrysogenum [20]): 15 mm
diameter of the inhibition zone (DIZ) (Staphylococcus aureus [21]): inactive
zone of inhibition at 100 µg/disc (Klebsiella pneumoniae [22]): 16 mm
zone of inhibition at 12.5 µg/disc (Klebsiella pneumoniae [23]): 10 mm
zone of inhibition at 25 µg/disc (Aspergillus niger [24]): 20 mm

— ChEMBL document CHEMBL4251634, “Synthesis and antimicrobial activity of pyrimidinyl 1,3,4-oxadiazoles, 1,3,4-thiadiazoles and 1,2,4-triazoles” (2018)
